The nature of test [1]: Compound was tested in vitro for inhibitory activity in the mixed lymphocyte reaction (MLR) assay. The test is classed as functional.
Test [2] in a line: Compound was tested in vitro for its ability to inhibit the proliferation of the IL-6-dependent hybridoma clone B13-29-15. The test is classed as functional.
The target of test [3] is Peptidyl-prolyl cis-trans isomerase FKBP1A (Homo sapiens, UniProt P62942). Kind of test: Compound was tested in vitro for its ability to compete with immobilized FK506 for binding to biotinylated FK506 binding protein 12 in a competitive binding assay.
Chain of Peptidyl-prolyl cis-trans isomerase FKBP1A (P62942 whole entry): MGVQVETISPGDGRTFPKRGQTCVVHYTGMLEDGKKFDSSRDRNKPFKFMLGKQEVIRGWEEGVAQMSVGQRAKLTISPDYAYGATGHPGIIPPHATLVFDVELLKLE

For the molecule `COC(=O)CC[C@H](CCO)C[C@@H](C)[C@@H]1CC(=O)[C@H](C)/C=C(\C)[C@@H](O)[C@@H](OC)C(=O)[C@H](C)C[C@H](C)/C=C/C=C/C=C(\C)[C@@H](OC)C[C@@H]2CC[C@@H](C)[C@@](O)(O2)C(=O)C(=O)N2CCCC[C@H]2C(=O)O1`, the values for the IC50 in test [1], in test [2] and in test [3] were over 380 nM, 200 nM and 3.4 nM, respectively.

For `CO[C@H]1C[C@@H]2CC[C@@H](C)[C@@](O)(O2)C(=O)C(=O)N2CCCC[C@H]2C(=O)O[C@H]([C@H](C)C[C@@H]2CC[C@@H](O)[C@H](OC)C2)CC(=O)[C@H](C)/C=C(\C)[C@@H](O)[C@@H](OC)C(=O)[C@H](C)C[C@H](C)/C=C/C=C/C=C/1C` [SIROLIMUS], the IC50 in test [1] and in test [2] was 1 nM each time.

Source of the values: ChEMBL document CHEMBL1131933, “Cleavage of the cyclohexyl-subunit of rapamycin results in loss of immunosuppressive activity” (Bioorg Med Chem Lett, 1999).
